Measurements taken from ChEMBL document CHEMBL4828776, “Acremopeptaibols A-F, 16-Residue Peptaibols from the Sponge-Derived Acremonium sp. IMB18-086 Cultivated with Heat-Killed Pseudomonas aeruginosa” (J Nat Prod, 2021).
≈ marks a conversion by molar mass, not a printed value. Non-standard residues stand in square brackets, D forms with d. Residues, ends and D or L forms follow the SMILES beside them. Hyp = O=C(O)[C@@H]1C[C@@H](O)CN1; Phe(ol) = N[C@H](CO)Cc1ccccc1; Aib = CC(C)(N)C(=O)O

How the values were obtained:
Staphylococcus aureus [1] = assay: Antibacterial activity against Staphylococcus aureus ATCC 29213 assessed as inhibition of bacterial growth incubated for 16 hrs by microdilution method; assay type: functional
Enterococcus faecalis = assay: Antibacterial activity against vancomycin-resistant Enterococcus faecalis 21-07 assessed as inhibition of bacterial growth incubated for 16 hrs by microdilution method; assay type: functional
A549 = assay: Cytotoxicity against human A549 cells assessed as reduction in cell viability incubated for 48 hrs by CCK8 assay; assay type: functional, cell-based; conditions: A549, 48 h
Staphylococcus aureus [2] = assay: Antibacterial activity against methicillin-resistant Staphylococcus aureus ATCC 33591 assessed as inhibition of bacterial growth incubated for 16 hrs by microdilution method; assay type: functional
Staphylococcus aureus [3] = assay: Antibacterial activity against Staphylococcus aureus ATCC 25923 assessed as inhibition of bacterial growth incubated for 16 hrs by microdilution method; assay type: functional
Pseudomonas aeruginosa = assay: Antibacterial activity against Pseudomonas aeruginosa ATCC 27853 assessed as inhibition of bacterial growth incubated for 16 hrs by microdilution method; assay type: functional
Escherichia coli = assay: Antibacterial activity against Escherichia coli ATCC 25922 assessed as inhibition of bacterial growth incubated for 16 hrs by microdilution method; assay type: functional
HepG2 = assay: Cytotoxicity against human HepG2 cells assessed as reduction in cell viability incubated for 48 hrs by CCK8 assay; assay type: functional, cell-based; conditions: HepG2, 48 h
[4] = system: Staphylococcus epidermidis; assay: Antibacterial activity against Staphylococcus epidermidis ATCC 12228 assessed as inhibition of bacterial growth incubated for 16 hrs by microdilution method; assay type: functional
Candida albicans = assay: Antifungal activity against Candida albicans ATCC 10231 assessed as inhibition of fungal growth incubated for 16 hrs by microdilution method; assay type: functional
Bacillus subtilis = assay: Antibacterial activity against Bacillus subtilis ATCC 6633 assessed as inhibition of bacterial growth incubated for 16 hrs by microdilution method; assay type: functional

Molecule	MIC (Staphylococcus aureus [1]) [µg/mL]	MIC (Enterococcus faecalis) [µg/mL]	IC50 (A549) [µM]	MIC (Staphylococcus aureus [2]) [µg/mL]	MIC (Staphylococcus aureus [3]) [µg/mL]	MIC (Pseudomonas aeruginosa) [µg/mL]	MIC (Escherichia coli) [µg/mL]	IC50 (HepG2) [µM]	MIC [4] [µg/mL]	MIC (Candida albicans) [µg/mL]	MIC (Bacillus subtilis) [µg/mL]
C/C(=C\Cc1c(O)c(Cl)c(C)c(C=O)c1O)[C@H](O)C[C@@]1(C)[C@H](C)CCC(=O)[C@@H]1C	> 128	> 128	0.9	> 128	128 (≈ 303 µM)	> 128	> 128	0.9	> 128	> 128	> 128
CN[C@H](CC(C)C)C(=O)N[C@H]1C(=O)N[C@@H](CC(N)=O)C(=O)N[C@H]2C(=O)N[C@H]3C(=O)N[C@H](C(=O)N[C@H](C(=O)O)c4cc(O)cc(O)c4-c4cc3ccc4O)[C@H](O)c3ccc(c(Cl)c3)Oc3cc2cc(c3O[C@@H]2O[C@H](CO)[C@@H](O)[C@H](O)[C@H]2O[C@H]2C[C@](C)(N)[C@H](O)[C@H](C)O2)Oc2ccc(cc2Cl)[C@H]1O [VANCOMYCIN]	–	16 (≈ 11 µM)	–	–	–	> 128	> 128	–	–	–	0.125 (≈ 0.0863 µM)
CC[C@@](C)(NC(=O)CNC(=O)[C@@](C)(CC)NC(=O)[C@H](CCC(N)=O)NC(=O)C(C)(C)NC(=O)[C@H](Cc1c[nH]c2ccccc12)NC(C)=O)C(=O)N[C@@H](C)C(=O)NC(C)(C)C(=O)NC(C)(C)C(=O)NCC(=O)N[C@@H](CCC(N)=O)C(=O)NC(C)(C)C(=O)N1C[C@H](O)C[C@@H]1C(=O)NC(C)(C)C(=O)N1CCC[C@H]1C(=O)N[C@H](CO)Cc1ccccc1	> 128	> 128	≥ 50	> 128	> 128	> 128	> 128	≥ 50	> 128	64 (≈ 38.7 µM)	> 128
CC(/C=C/[C@@]1(C)[C@H](C)CC[C@@H](O)[C@@H]1C)=C\Cc1c(O)c(Cl)c(C)c(C=O)c1O	> 128	> 128	0.9	> 128	16 (≈ 39.3 µM)	> 128	> 128	0.9	16 (≈ 39.3 µM)	> 128	32 (≈ 78.6 µM)
CC[C@@](C)(NC(=O)CNC(=O)[C@@](C)(CC)NC(=O)[C@H](CCC(N)=O)NC(=O)C(C)(C)NC(=O)[C@H](Cc1c[nH]c2ccccc12)NC(C)=O)C(=O)N[C@@H](C)C(=O)NC(C)(C)C(=O)NC(C)(C)C(=O)NCC(=O)N[C@@H](CCC(N)=O)C(=O)N[C@](C)(CC)C(=O)N1C[C@H](O)C[C@H]1C(=O)NC(C)(C)C(=O)N1CCC[C@H]1C(=O)N[C@H](CO)Cc1ccccc1	32 (≈ 19.2 µM)	> 128	≥ 50	64 (≈ 38.3 µM)	64 (≈ 38.3 µM)	> 128	> 128	≥ 50	> 128	16 (≈ 9.59 µM)	16 (≈ 9.59 µM)
CC[C@@](C)(NC(=O)[C@H](CCC(N)=O)NC(=O)C(C)(C)NC(=O)[C@H](Cc1c[nH]c2ccccc12)NC(C)=O)C(=O)NCC(=O)NC(C)(C)C(=O)N[C@@H](C)C(=O)NC(C)(C)C(=O)NC(C)(C)C(=O)NCC(=O)N[C@@H](CCC(N)=O)C(=O)NC(C)(C)C(=O)N1C[C@H](O)C[C@H]1C(=O)NC(C)(C)C(=O)N1CCC[C@H]1C(=O)N[C@H](CO)Cc1ccccc1	> 128	> 128	≥ 50	> 128	> 128	> 128	> 128	≥ 50	> 128	64 (≈ 39 µM)	64 (≈ 39 µM)
C/C(=C\Cc1c(O)c(Cl)c(C)c(C=O)c1O)CC/C=C(\C)[C@@H]1CC(=O)C(C)(C)O1 [ASCOFURANONE]	16 (≈ 38 µM)	> 128	0.9	32 (≈ 76 µM)	4 (≈ 9.5 µM)	> 128	> 128	0.9	4 (≈ 9.5 µM)	32 (≈ 76 µM)	16 (≈ 38 µM)
CC[C@@](C)(NC(=O)[C@H](CCC(N)=O)NC(=O)C(C)(C)NC(=O)[C@H](Cc1c[nH]c2ccccc12)NC(C)=O)C(=O)NCC(=O)NC(C)(C)C(=O)N[C@@H](C)C(=O)NC(C)(C)C(=O)NC(C)(C)C(=O)NCC(=O)N[C@@H](CCC(N)=O)C(=O)N[C@](C)(CC)C(=O)N1C[C@H](O)C[C@H]1C(=O)NC(C)(C)C(=O)N1CCC[C@H]1C(=O)N[C@H](CO)Cc1ccccc1	64 (≈ 38.7 µM)	> 128	≥ 50	64 (≈ 38.7 µM)	64 (≈ 38.7 µM)	> 128	> 128	≥ 50	> 128	32 (≈ 19.3 µM)	16 (≈ 9.67 µM)
CC(=O)N[C@@H](Cc1c[nH]c2ccccc12)C(=O)NC(C)(C)C(=O)N[C@@H](CCC(N)=O)C(=O)NC(C)(C)C(=O)NCC(=O)NC(C)(C)C(=O)N[C@@H](C)C(=O)NC(C)(C)C(=O)NC(C)(C)C(=O)NCC(=O)N[C@@H](CCC(N)=O)C(=O)NC(C)(C)C(=O)N1C[C@H](O)C[C@H]1C(=O)NC(C)(C)C(=O)N1CCC[C@H]1C(=O)N[C@H](CO)Cc1ccccc1 (Ac-W[Aib]Q[Aib]G[Aib]A[Aib][Aib]GQ[Aib][Hyp][Aib]P[Phe(ol)])	> 128	> 128	≥ 50	> 128	> 128	> 128	> 128	≥ 50	> 128	> 128	> 128
NYSTATIN	–	–	–	–	–	–	–	–	–	> 128	–
COLISTIN	128	> 128	–	128	64	1	1	–	16	–	16
CC(/C=C/[C@@]1(C)[C@H](C)CCC(=O)[C@@H]1C)=C\Cc1c(O)c(Cl)c(C)c(C=O)c1O [ASCOCHLORIN]	16 (≈ 39.5 µM)	> 128	0.9	> 128	1 (≈ 2.47 µM)	> 128	> 128	0.9	0.25 (≈ 0.617 µM)	4 (≈ 9.88 µM)	2 (≈ 4.94 µM)
CC[C@@](C)(NC(=O)[C@H](CCC(N)=O)NC(=O)CNC(=O)C(C)(C)NC(=O)C(C)(C)NC(=O)[C@H](C)NC(=O)C(C)(C)NC(=O)CNC(=O)C(C)(C)NC(=O)[C@H](CCC(N)=O)NC(=O)C(C)(C)NC(=O)[C@H](Cc1c[nH]c2ccccc12)NC(C)=O)C(=O)N1C[C@H](O)C[C@H]1C(=O)NC(C)(C)C(=O)N1CCC[C@H]1C(=O)N[C@H](CO)Cc1ccccc1	128 (≈ 78 µM)	> 128	≥ 50	128 (≈ 78 µM)	128 (≈ 78 µM)	> 128	> 128	≥ 50	> 128	64 (≈ 39 µM)	32 (≈ 19.5 µM)
